Measured values taken from patent US20190105367A1, “ANTIMICROBIAL 4-OXOQUINOLIZINES” (Emergent Product Development Gaithersburg Inc., priority 2011, published 2019).
Converted amounts (≈) assume the structure as drawn. Like-named read-outs stand apart in the source and are kept apart here.

Assays:
A. baumannii A14 [1] = test: MIC without and with sub-inhibitory polymyxin B (Example 4); format: cell-based, Acinetobacter baumannii; details: 1st experiment
A. baumannii A401 [2] = test: Preliminary MBC without and with sub-inhibitory polymyxin B (Example 4); format: cell-based, Acinetobacter baumannii; details: Acinetobacter baumannii
A. baumannii NCTC 13301 [3] = test: MIC without and with sub-inhibitory polymyxin B (Example 4); format: cell-based, Acinetobacter baumannii; details: +[…] PB, 2nd experiment
A. baumannii A472 [4] = test: as above; format: cell-based, Acinetobacter baumannii; details: for MIC: Acinetobacter baumannii
A. baumannii A390 [5] = test: as above; format: cell-based, Acinetobacter baumannii; details: +0.06 μg/ml PB, 2nd experiment
A. baumannii ATCC 19606 [6] = test: as above; format: cell-based, Acinetobacter baumannii; details: for MIC without PB/MIC + PB: A. baumannii ATCC 19606; for MIC: Acinetobacter baumannii
A. baumannii A387 [7] = test: Preliminary MBC without and with sub-inhibitory polymyxin B (Example 4); format: cell-based, Acinetobacter baumannii; details: Acinetobacter baumannii
A. baumannii A473 [8] = test: MIC without and with sub-inhibitory polymyxin B (Example 4); format: cell-based, Acinetobacter baumannii; details: +0.06 μg/ml PB, 2nd experiment
A. baumannii A329 = test: Preliminary MBC without and with sub-inhibitory polymyxin B (Example 4); format: cell-based, Acinetobacter baumannii; details: Acinetobacter baumannii, A329, A. baumannii A329, +0.06 μg/ml PB, 2nd experiment, read-out: MBC
A. baumannii A14 [9] = test: MIC without and with sub-inhibitory polymyxin B (Example 4); format: cell-based, Acinetobacter baumannii; details: 2nd experiment
[10] = system: strains of A. baumannii and one strain of Acinetobacter sp.; test: MIC with sub-inhibitory concentrations (0.25x MIC) of polymyxin B, panel of Acinetobacter strains (Example 4); format: cell-based
A. baumannii ATCC 19606 [11] = test: Preliminary MBC without and with sub-inhibitory polymyxin B (Example 4); format: cell-based, Acinetobacter baumannii; details: Acinetobacter baumannii
A. baumannii J2 = test: MIC without and with sub-inhibitory polymyxin B (Example 4); format: cell-based, Acinetobacter baumannii; details: for MIC without PB/MIC + PB: A. baumannii J2; for MIC: Acinetobacter baumannii
A. baumannii A14 [12] = test: Preliminary MBC without and with sub-inhibitory polymyxin B (Example 4); format: cell-based, Acinetobacter baumannii; details: 2nd experiment
Outline: (§1)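 After plating, cultures are held at 37° C for 18-20 hours; the endpoint is then scored by comparing colony growth against the positive control, with MBC defined as the lowest concentration showing roughly 90% reduction.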

A. baumannii A473 [13] = test: as above; format: cell-based, Acinetobacter baumannii; details: Acinetobacter baumannii, A473, A. baumannii A473, +0.06 μg/ml PB, 2nd experiment, read-out: MBC
Outline: as §1

A. baumannii A390 [14] = test: as above; format: cell-based, Acinetobacter baumannii; details: Acinetobacter baumannii, A390, A. baumannii A390, +0.06 μg/ml PB, 2nd experiment, read-out: MBC
Outline: as §1

A. baumannii NCTC 13301 [15] = test: as above; format: cell-based, Acinetobacter baumannii; details: Acinetobacter baumannii
Outline: as §1

A. baumannii A387 [16] = test: MIC without and with sub-inhibitory polymyxin B (Example 4); format: cell-based, Acinetobacter baumannii; details: for MIC without PB/MIC + PB: A. baumannii A387
A. baumannii NCTC 13301 [17] = test: as above; format: cell-based, Acinetobacter baumannii
A. baumannii A401 [18] = test: as above; format: cell-based, Acinetobacter baumannii; details: for MIC: Acinetobacter baumannii
A. baumannii A472 [19] = test: Preliminary MBC without and with sub-inhibitory polymyxin B (Example 4); format: cell-based, Acinetobacter baumannii; details: Acinetobacter baumannii, preliminary MBC
A. baumannii A489 = test: MIC without and with sub-inhibitory polymyxin B (Example 4); format: cell-based, Acinetobacter baumannii; details: for MIC without PB/MIC + PB: A. baumannii A489; for MIC: Acinetobacter baumannii
[20] = system: Acinetobacter sp. (H064200250); test: as above; format: cell-based; details: for MIC: Acinetobacter
A. baumannii A14 [21] = test: Preliminary MBC without and with sub-inhibitory polymyxin B (Example 4); format: cell-based, Acinetobacter baumannii; details: A. baumannii A14, preliminary MBC, 1st experiment
[22] = ratio, PB 0.06 μg/ml, 1st experiment
[23] = A. baumannii A14, +0.06 μg/ml PB

With Cc1c(-c2cc(Cl)c(N)c(Cl)c2)ccn2c(=O)c(C(=O)O)cc(C3CC3)c12 [Compound 3, 8-(3,5-dichloro-4-amino-phenyl)-1-cyclopropyl-9-methyl-4-oxo-quinolizine-3-carboxylic acid] the “MIC +0.06 μg/ml PB” value (A. baumannii A14 [1]; +0.06 μg/ml polymyxin B) was 1 µg/mL, the MIC (A. baumannii A14 [1]; Acinetobacter baumannii, 24 h, without polymyxin B, read-out: MIC without PB) was greater than 32 µg/mL and the “MIC without PB/MIC + PB” value (A. baumannii A14 [1]; ratio, PB 0.06 μg/ml) was no less than 32. For the same compound, the MBC (A. baumannii A401 [2]; A401, A baumannii A 401, +0.06 μg/ml PB, 2nd experiment, read-out: MBC) was 0.125 µg/mL (≈ 0.31 µM), the MBC (A. baumannii A401 [2]; A401, read-out: MBC +0.06 μg/ml PB, A baumannii A 401, +0.06 μg/ml polymyxin B, 1st experiment) was 0.125 µg/mL and the “MIC without PB/MIC + PB” value (A. baumannii NCTC 13301 [3]; A. baumannii NCTC 13301) was no less than 1024. For the same compound, the MIC (A. baumannii NCTC 13301 [3]; Acinetobacter baumannii, NCTC13301, A. baumannii NCTC 13301, read-out: MIC) was no more than 0.03 µg/mL, the “MIC without PB/MIC + PB” value (A. baumannii A472 [4]; A. baumannii A472, ratio, PB […], 1st experiment) was 64 and the MIC (A. baumannii A472 [4]; A472, A. baumannii A472, +[…] PB, 2nd experiment, read-out: MIC) was no more than 0.03 µg/mL. For the same compound, the MIC (A. baumannii A472 [4]; A472, read-out: MIC +[…] PB, A. baumannii A472, +[…] polymyxin B, 1st experiment) was 0.5 µg/mL (≈ 1.24 µM), the “MIC without PB/MIC + PB” value (A. baumannii A390 [5]; A. baumannii A390) was no less than 256 and the MIC (A. baumannii A390 [5]; Acinetobacter baumannii, A390, A. baumannii A390, read-out: MIC) was 0.125 µg/mL (≈ 0.31 µM). For the same compound, the “MIC without PB/MIC + PB” value (A. baumannii ATCC 19606 [6]; +0.06 μg/ml PB, 2nd experiment) was no less than 8, the “MIC without PB/MIC + PB” value (A. baumannii ATCC 19606 [6]; [22]) was no less than 8 and the MIC (A. baumannii ATCC 19606 [6]; ATCC19606, A. baumannii ATCC 19606, +0.06 μg/ml PB, 2nd experiment, read-out: MIC) was no more than 0.03 µg/mL. It also gave an MIC (A. baumannii ATCC 19606 [6]; ATCC19606, read-out: MIC +0.06 μg/ml PB, A. baumannii ATCC 19606, +0.06 μg/ml polymyxin B, 1st experiment) of no more than 0.03 µg/mL, an MBC (A. baumannii A387 [7]; A387, A. baumannii A387, +0.06 μg/ml PB, 2nd experiment, read-out: MBC) of no more than 0.03 µg/mL and an MBC (A. baumannii A387 [7]; A387, read-out: MBC +0.06 μg/ml PB, A. baumannii A387, +0.06 μg/ml polymyxin B, 1st experiment) of 0.25 µg/mL. For the same compound, the “MIC without PB/MIC + PB” value (A. baumannii A473 [8]; A. baumannii A473) was no less than 256, the MIC (A. baumannii A473 [8]; Acinetobacter baumannii, A473, A. baumannii A473, read-out: MIC) was no more than 0.03 µg/mL and the MBC (A. baumannii A329) was 0.25 µg/mL (≈ 0.62 µM). The MIC (A. baumannii A14 [9]; [23]) was 0.125 µg/mL (≈ 0.31 µM), the “MIC without PB/MIC + PB” value (A. baumannii A14 [9]; [23]) was no less than 256 and the MIC (A. baumannii A14 [9]; Acinetobacter baumannii, A14, A. baumannii A14, without PB, read-out: MIC) was greater than 32 µg/mL. For the same compound, the “MIC range with PB (0.25x MIC) Oct. 1, 2008 n = 8” value ([10]; 1st experiment, […] polymyxin B, ATCC 19606, A329, A390 and A473 not taken) was no more than 0.03 to 1 µg/mL, the “MIC range with PB (0.25x MIC) Oct. 14, 2008 n = 11” value ([10]; 2nd experiment, 0.06 μg/ml polymyxin B, all strains except the ATCC strain) was no more than 0.03 to 0.5 µg/mL and the MBC (A. baumannii ATCC 19606 [11]; ATCC19606, A. baumannii ATCC 19606, +0.06 μg/ml PB, 2nd experiment, read-out: MBC) was no more than 0.03 µg/mL. For the same compound, the MBC (A. baumannii ATCC 19606 [11]; ATCC19606, read-out: MBC +0.06 μg/ml PB, A. baumannii ATCC 19606, +0.06 μg/ml polymyxin B, 1st experiment) was no more than 0.03 µg/mL, the “MIC without PB/MIC + PB” value (A. baumannii J2; +[…] PB, 2nd experiment) was no less than 1024 and the “MIC without PB/MIC + PB” value (A. baumannii J2; ratio, PB […], 1st experiment) was 64. The MIC (A. baumannii J2; J2, A. baumannii J2, +[…] PB, 2nd experiment, read-out: MIC) was no more than 0.03 µg/mL, the MIC (A. baumannii J2; J2, read-out: MIC +[…] PB, A. baumannii J2, +[…] polymyxin B, 1st experiment) was 0.125 µg/mL (≈ 0.31 µM) and the MBC (A. baumannii A14 [12]; [23]) was 0.125 µg/mL (≈ 0.31 µM). For the same compound, the MBC (A. baumannii A14 [12]; Acinetobacter baumannii, A14, A. baumannii A14, without PB, read-out: MBC) was greater than 32 µg/mL, the MBC (A. baumannii A473 [13]) was 0.06 µg/mL (≈ 0.149 µM) and the MBC (A. baumannii A390 [14]) was 0.125 µg/mL (≈ 0.31 µM). The MBC (A. baumannii NCTC 13301 [15]; NCTC13301, A. baumannii NCTC 13301, +[…] PB, preliminary MBC, 2nd experiment, read-out: MBC) was no more than 0.03 µg/mL, the MBC (A. baumannii NCTC 13301 [15]; NCTC13301, read-out: MBC +[…] PB) was 0.5 µg/mL (≈ 1.24 µM) and the “MIC without PB/MIC + PB” value (A. baumannii A387 [16]; +0.06 μg/ml PB, 2nd experiment) was no less than 32. The “MIC without PB/MIC + PB” value (A. baumannii A387 [16]; [22]) was no less than 32, the MIC (A. baumannii A387 [16]; Acinetobacter baumannii, A387, read-out: MIC +0.06 μg/ml PB, A. baumannii A387, +0.06 μg/ml polymyxin B, 1st experiment) was no more than 0.03 µg/mL and the “MIC without PB/MIC + PB” value (A. baumannii NCTC 13301 [17]; A. baumannii NCTC 13301, ratio, PB […], 1st experiment) was no less than 64. The MIC (A. baumannii NCTC 13301 [17]; Acinetobacter baumannii, NCTC13301, read-out: MIC +[…] PB) was 0.5 µg/mL (≈ 1.24 µM), the “MIC without PB/MIC + PB” value (A. baumannii A401 [18]; A baumannii A 401, ratio, PB 0.06 μg/ml, 1st experiment) was 64 and the MIC (A. baumannii A401 [18]; A401, A baumannii A 401, +0.06 μg/ml PB, 2nd experiment, read-out: MIC) was 0.125 µg/mL (≈ 0.31 µM). It also gave an MIC (A. baumannii A401 [18]; A401, read-out: MIC +0.06 μg/ml PB, A baumannii A 401, +0.06 μg/ml polymyxin B, 1st experiment) of 0.125 µg/mL, an MBC (A. baumannii A472 [19]; A472, A. baumannii A472, +[…] PB, 2nd experiment, read-out: MBC) of no more than 0.03 µg/mL and an MBC (A. baumannii A472 [19]; A472, read-out: MBC +[…] PB, A. baumannii A472, +[…] polymyxin B, 1st experiment) of 0.25 µg/mL (≈ 0.62 µM). For the same compound, the “MIC without PB/MIC + PB” value (A. baumannii A489; +[…] PB, 2nd experiment) was no less than 128, the “MIC without PB/MIC + PB” value (A. baumannii A489; ratio, PB […], 1st experiment) was 64 and the MIC (A. baumannii A489; A489, A. baumannii A489, +[…] PB, 2nd experiment, read-out: MIC) was no more than 0.03 µg/mL. For the same compound, the MIC (A. baumannii A489; A489, read-out: MIC +[…] PB, A. baumannii A489, +[…] polymyxin B, 1st experiment) was 0.06 µg/mL (≈ 0.149 µM), the “MIC without PB/MIC + PB” value ([20]; Acinetobacter spp. H064200250 (OXA51), +[…] PB, 2nd experiment) was 256 and the “MIC without PB/MIC + PB” value ([20]; Acinetobacter spp. H064200250, ratio, PB […], 1st experiment) was 16. The MIC ([20]; Acinetobacter spp. H064200250 (OXA51), +[…] PB, 2nd experiment, read-out: MIC) was 0.06 µg/mL (≈ 0.149 µM), the MIC ([20]; read-out: MIC +[…] PB, Acinetobacter spp. H064200250, +[…] polymyxin B, 1st experiment) was 0.5 µg/mL (≈ 1.24 µM) and the “MBC +0.06 μg/ml PB” value (A. baumannii A14 [21]; +0.06 μg/ml polymyxin B) was 1 µg/mL. The MBC (A. baumannii A14 [21]; Acinetobacter baumannii, without polymyxin B, read-out: MBC without PB) was greater than 32 µg/mL.
